The values below come from the supplement of paper PMC12076712.

Molecules are shown by their SMILES.

One test addresses T1, NEK9 (UniProt Q8TD19).
T1 sequence (whole entry): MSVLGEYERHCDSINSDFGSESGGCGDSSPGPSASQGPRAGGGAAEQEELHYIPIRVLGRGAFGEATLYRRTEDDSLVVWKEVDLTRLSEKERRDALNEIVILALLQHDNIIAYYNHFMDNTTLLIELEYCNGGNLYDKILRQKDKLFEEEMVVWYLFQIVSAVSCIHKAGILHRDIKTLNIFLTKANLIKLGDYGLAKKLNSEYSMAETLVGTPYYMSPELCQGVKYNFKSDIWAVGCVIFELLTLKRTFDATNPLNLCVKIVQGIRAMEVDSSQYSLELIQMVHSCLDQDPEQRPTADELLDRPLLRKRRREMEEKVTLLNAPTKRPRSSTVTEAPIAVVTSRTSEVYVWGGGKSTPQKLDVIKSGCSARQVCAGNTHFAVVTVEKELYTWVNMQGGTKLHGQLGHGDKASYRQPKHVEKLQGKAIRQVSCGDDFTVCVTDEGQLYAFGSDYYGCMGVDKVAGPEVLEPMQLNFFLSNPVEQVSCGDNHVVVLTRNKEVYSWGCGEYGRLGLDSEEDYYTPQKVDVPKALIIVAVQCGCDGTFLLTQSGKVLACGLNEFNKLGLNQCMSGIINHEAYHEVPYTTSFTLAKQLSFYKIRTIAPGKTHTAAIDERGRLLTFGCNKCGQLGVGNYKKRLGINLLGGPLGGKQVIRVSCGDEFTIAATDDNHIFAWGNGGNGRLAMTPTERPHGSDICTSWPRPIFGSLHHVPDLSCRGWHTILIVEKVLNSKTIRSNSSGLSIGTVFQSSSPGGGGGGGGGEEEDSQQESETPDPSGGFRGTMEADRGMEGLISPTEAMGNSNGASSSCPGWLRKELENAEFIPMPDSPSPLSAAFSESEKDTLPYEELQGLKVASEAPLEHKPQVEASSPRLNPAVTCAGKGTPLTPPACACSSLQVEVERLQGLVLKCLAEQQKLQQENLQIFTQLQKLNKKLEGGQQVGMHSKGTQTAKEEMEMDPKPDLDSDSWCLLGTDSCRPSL
Nature of the test: pIC50, competition of probe 3 labelling in live cells. To be noted: cell material: Jurkat cells.

The target of another test is T2, BRSK1 (UniProt Q8TDC3).
T2 sequence (whole entry): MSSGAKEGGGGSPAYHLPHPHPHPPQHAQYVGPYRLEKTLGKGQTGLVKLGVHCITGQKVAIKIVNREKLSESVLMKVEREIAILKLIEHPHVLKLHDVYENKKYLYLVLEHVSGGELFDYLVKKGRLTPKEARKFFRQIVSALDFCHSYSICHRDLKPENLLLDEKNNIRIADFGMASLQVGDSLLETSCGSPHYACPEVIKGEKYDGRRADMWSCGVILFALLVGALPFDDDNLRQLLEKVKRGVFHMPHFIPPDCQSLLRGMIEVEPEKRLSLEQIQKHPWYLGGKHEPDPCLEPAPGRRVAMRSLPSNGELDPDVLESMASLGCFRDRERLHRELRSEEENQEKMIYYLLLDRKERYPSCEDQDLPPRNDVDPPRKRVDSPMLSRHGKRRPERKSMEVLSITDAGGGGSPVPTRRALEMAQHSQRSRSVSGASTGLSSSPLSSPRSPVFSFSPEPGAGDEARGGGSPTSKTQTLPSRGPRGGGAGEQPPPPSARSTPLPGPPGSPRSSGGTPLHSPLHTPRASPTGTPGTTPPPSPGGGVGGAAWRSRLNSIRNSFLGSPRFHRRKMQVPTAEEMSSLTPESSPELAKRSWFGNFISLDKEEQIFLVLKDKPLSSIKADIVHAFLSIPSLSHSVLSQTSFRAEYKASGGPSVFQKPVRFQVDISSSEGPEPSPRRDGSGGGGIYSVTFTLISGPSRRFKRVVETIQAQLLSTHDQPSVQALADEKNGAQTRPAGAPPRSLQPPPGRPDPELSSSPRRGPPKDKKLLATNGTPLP
The test is described as follows: pIC50, kinobeads binding competition. An outline of the steps:
(§1)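 To obtain pIC50, fold changes versus vehicle were fitted to logistic dose-response curves (R drc package) across biological duplicates. Protein binding to Kinobeads was quantified by TMT10 LC-MS/MS of digested bead-bound proteins. Treatments used nine concentrations with a top of 30 μM, applied to live Jurkat cells in 1:4 steps for 60 min at 37 °C before lysis, or to Jurkat lysate or a 1:1:1:1 HEK293/K-562/HepG2/placenta lysate mix in 1:5 steps for 60 min at 4 °C.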

The next test concerns the target T3, PRKG2 (UniProt Q13237).
T3 sequence (whole entry): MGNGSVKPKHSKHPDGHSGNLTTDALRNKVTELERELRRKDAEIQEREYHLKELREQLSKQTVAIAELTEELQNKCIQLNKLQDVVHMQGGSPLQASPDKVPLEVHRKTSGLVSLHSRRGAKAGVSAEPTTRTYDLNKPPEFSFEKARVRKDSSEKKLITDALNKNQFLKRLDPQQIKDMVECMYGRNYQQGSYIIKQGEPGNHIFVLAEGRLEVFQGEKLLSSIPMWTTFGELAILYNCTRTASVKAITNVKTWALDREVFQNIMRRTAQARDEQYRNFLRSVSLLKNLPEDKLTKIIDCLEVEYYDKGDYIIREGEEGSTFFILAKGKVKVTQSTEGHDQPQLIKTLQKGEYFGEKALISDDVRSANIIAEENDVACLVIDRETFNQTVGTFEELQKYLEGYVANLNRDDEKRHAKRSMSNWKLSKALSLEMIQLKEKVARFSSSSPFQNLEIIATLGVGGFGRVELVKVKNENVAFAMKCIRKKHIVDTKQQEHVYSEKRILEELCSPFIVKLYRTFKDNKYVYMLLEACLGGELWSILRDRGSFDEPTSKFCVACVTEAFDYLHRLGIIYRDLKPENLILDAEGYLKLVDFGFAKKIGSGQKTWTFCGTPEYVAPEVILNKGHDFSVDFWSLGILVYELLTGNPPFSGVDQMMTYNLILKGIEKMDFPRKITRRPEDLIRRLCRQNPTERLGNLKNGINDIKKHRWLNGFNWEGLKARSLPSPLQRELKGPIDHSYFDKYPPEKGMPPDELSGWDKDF
The test is described as follows: pIC50, kinobeads binding competition. To be noted: cell material: Jurkat lysate. An outline of the steps: as §1

The term pIC50 denotes the IC50 on a negative log10 scale, so that one unit is a factor of ten. The low end stands for a high IC50, the high end for a low IC50. Compound `CCc1cnn2c(NCc3ccc[n+]([O-])c3)cc(N3CCCC[C@H]3CCO)nc12` [dinaciclib] had a negative logarithm of the IC50 (pIC50) on NEK9 of less than 4.52.
In the case of `O=C(NCCNC(=O)c1cc(Nc2cc(C3CC3)[nH]n2)nc(N2CCN(Cc3ccc(S(=O)(=O)F)cc3)CC2)n1)OC1CC/C=C/CCC1` (stereo not drawn), the pIC50 on BRSK1 (cell material: Jurkat cells) is 6.6; on BRSK1 (cell material: Jurkat lysate) it was less than 4.52; at PRKG2, less than 4.52.
On to `CC#CC(=O)Nc1ccc2ncnc(Nc3cccc(Br)c3)c2c1` [EKI-785], for which the pIC50 on NEK9 is less than 4.52.
On to `C#CCNC(=O)c1cc(Nc2cc(C3CC3)[nH]n2)nc(N2CCN(Cc3ccc(S(=O)(=O)F)cc3)CC2)n1`, for which the negative-log IC50 (pIC50) on BRSK1 (cell material: Jurkat cells) is 6.05; at BRSK1 (cell material: Jurkat lysate), less than 4.52; at PRKG2 it was less than 4.52.
